Measured values as given in BigSolDB 2.1.

O=C(O)COc1ccc2ccccc2c1
solubility (mole fraction)
Conditions	278.15 K	283.15 K	288.15 K	293.15 K	298.15 K	303.15 K	308.15 K	313.15 K	318.15 K	323.15 K
in acetone	0.038	0.0427	0.0481	0.0543	0.0613	0.0693	0.0785	0.089	0.101	0.115
in acetonitrile	0.00475	0.00574	0.00695	0.0084	0.0101	0.0123	0.0148	0.0178	0.0214	0.0258
in ethanol	0.0128	0.0152	0.0181	0.0217	0.0261	0.0315	0.0383	0.0469	0.0582	0.0728
in ethyl acetate	0.0145	0.0167	0.0192	0.0221	0.0255	0.0294	0.034	0.0393	0.0455	0.0527
in isobutanol	0.00557	0.00685	0.00854	0.0106	0.0132	0.0165	0.0208	0.0262	0.0333	0.0422
in isopropanol	0.00742	0.00922	0.0115	0.0144	0.0171	0.0217	0.0262	0.03	0.0359	0.0407
in isopropyl acetate	0.0105	0.0121	0.014	0.0162	0.0187	0.0216	0.025	0.029	0.0336	0.039
in methanol	0.0132	0.0157	0.0188	0.0227	0.0276	0.0339	0.0415	0.052	0.0656	0.0846
in methyl acetate	0.0156	0.0181	0.021	0.0243	0.0283	0.0329	0.0382	0.0445	0.0517	0.0602
in n-pentanol	0.0114	0.0137	0.0164	0.019	0.0242	0.0294	0.0362	0.0433	0.0526	0.0691
in n-propanol	0.0101	0.012	0.0146	0.0178	0.0214	0.0273	0.0324	0.04	0.0506	0.0635
in n-propyl acetate	0.0123	0.0142	0.0164	0.0189	0.0219	0.0253	0.0293	0.0339	0.0393	0.0454
